Source: patent US6372727B1, “Metalloporphyrin treatment of neurologic disease” (UAB Research Foundation, priority 1999, dated 2002)
Several values for one entry are separate records, joined by “and”; a condition that tells them apart may be missing. Equal values may be shown once.

Key:
[1] = system: isolated hearts; experiment: Isolated hearts, ischemia and reperfusion
[2] = MP-catalyzed peroxynitrite decomposition monitored at 302 nm; type: biochemical; conditions: 100 μM peroxynitrite
Description: Peroxynitrite (100 μM) was added to rapidly stirred cuvettes at 37° C. containing the indicated concentrations of MPs in 0.1 M potassium phosphate, pH 7.4. Ascorbate was added to 150 μM where indicated. Peroxynitrite decomposition was monitored at 302 nm using a Hewlett-Packard diode-array spectrophotometer. Apparent rates (kapparents^−1, average of n=3) were plotted versus MP concentration to determine rate constants in M^−1s^−1.
Reactions contained the indicated concentration of FeTCPPin 1.4 ml of 0.1 M potassium phosphate, pH 7.4 in the absence or presence to 150 μM ascorbic acid. Peroxynitrite (100 μM) was added to rapidly stirred cuvettes at 37° C. and the decay of peroxynitrite was monitored continuously at 302 nm. Decay data were fitted to the equation describing first order decay to obtain apparent decay rates (kapparent sec^−1). Apparent decay rates as a function of FeTCPP were fitted by linear regression and the rate constant was obtained slope of the line.
Peroxynitrite (100 μM) decomposition was determined at 302 nm using a Hewlett-Packard diode-array spectrophotometer fitted with a temperature-controlled cuvette chamber and a water-driven cuvette stirrer. Bolus additions of peroxynitrite were made to vigorously stirred cuvettes containing varying concentrations of MPs (see Table III) while data were collected at a rate of ten points/sec. […] Each reaction was repeated three times and only the first additions of peroxynitrite were averaged. Data were exported for fitting and plotting. Apparent rates of peroxynitrite decomposition were plotted as a function of metalloporphyrin concentration (as shown in FIG. 5) to determine concentration-independent rate constants at 37° C.
Rates of peroxynitrite (100 μM) decomposition were determined at different MP concentrations. Ascorbate was added to 150 μM where indicated. […] Apparent rate constants were plotted versus MP concentration (as in FIG. 5A,B) to determine true rate constants in M^−1s^−1±standard error.

[3] = Ascorbate oxidation by MPs monitored at 266 nm; type: biochemical; conditions: MP 10 μM, 50 μM ascorbate, 0.1 M potassium phosphate pH 7.4, ± standard error, n=3
Description: In order to test the hypothesis that Mn(II)- or Fe(II)-porphyrins would be capable of carrying out two-electron reductions of peroxynitrite and thereby decreasing rather than increasing its reactivity, attempts were made to pre-reduce these transition metal-containing MPs prior to addition of peroxynitrite.
Table V. Ascorbate oxidation by MPs. MPs (10 μM) were added to stirred cuvettes containing 0.1 M potassium phosphate, pH 7.4 and 50 μM ascorbate. Ascorbate oxidation was monitored at 266 nm (ηm=17,700 M^−1cm^−1). Oxidation rates (±standard errors) were determined by fitting the initial linear portion of each curve and averaging the rates (n=3).

[4] = Oxidation of metalloporphyrins by peroxynitrite, stopped-flow spectroscopy; type: biochemical; conditions: 37° C., 0.1 M potassium phosphate pH 7.4, pseudo-first order, ± standard error
Description: Peroxynitrite (in 10 mM NaOH) was rapidly mixed with the indicated MPs in 0.1 M potassium phosphate, pH 7.4 at 37° C. using a stopped-flow apparatus as described in Methods. […] A final concentration of 40 μM peroxynitrite was added to 8 μM of each of the MPs MnTBAP, MnPPIX, and FePPIX. […] INSET: Apparent rate constants for oxidation of 8 μM MnTBAP are plotted as a function of peroxynitrite concentration to illustrate how the rate constants listed in Table III were determined.
Rates of metal loporphyrin oxidation by peroxynitrite were determined using a Bio Sequential SX-18MV Applied Photophysics stopped-flow spectrofluorometer. Solutions of metalloporphyrins in 0.1 M potassium phosphate buffer, pH 7.4 were placed in one syringe and solutions of peroxynitrite in 10 mM NaOH were placed in a second syringe, both of which were submerged in a water bath at 37° C. Changes in metalloporphyrin absorbance as a function of time were recorded following triggering of syringe firing and solution mixing (instrument dead time=2 msec); a total of 1000 data points were collected over intervals ranging from 50 msec to 3 sec. […] Because the absorbance changes associated with loss of +3 forms were greater, rates of metalloporphyrin oxidation were determined by monitoring the disappearance of Mn(III)TMPyP at 462 nm, Mn(III)TBAP at 468 nm, Mn(III)PPIX at 466 nm, and Fe(III)PPIX at 464 nm. Absorbance changes as a function of time were fitted to the equation describing a first order process. The concentration of peroxynitrite was varied from five-fold to forty-fold greater than the fixed metalloporphyrin concentration in order to obtained pseudo first-order conditions (see Table III). Each concentration was injected 10 times and data were averaged automatically prior to fitting.
Rate constants for stoichiometric metalloporphyrin oxidation by peroxynitrite at 37° C. were determined under pseudo-first order reaction conditions by varying the amount of peroxynitrite added to a fixed concentration of metalloporphyrin (Table III).
In Table III, the rate of peroxynitrite-mediated oxidation of metalloporphyrins at 37° C. was determined. Apparent rate constants were determined by stopped-flow spectroscopy and plotted versus the peroxynitrite concentration (as shown for MnTBAP in FIG. 4 inset) to determine the bimolecular rate constant in M^−1s^−1±standard error. FePPIX was monitored at 387 nm, MnPPIX at 464 nm, and MnTBAP at 470 nm.

[5] = MP-catalyzed nitration of HPA: effect of pH, reductants and serum; type: biochemical
Description: Single additions of 100 μM peroxynitrite were made to reactions containing ascorbate or GSH. Three sequential additions of 100 μM peroxynitrite were made to all other reactions.
This level of bicarbonate results in rapid saturation of the solution with carbon dioxide (˜1 mM). Solutions were placed into a rapidly stirred cuvette and nine bolus additions (50 μM×3, 100 μM×3, and 200 μM×3) of peroxynitrite were made sequentially while the absorbance was monitored. Increasing amounts of peroxynitrite were added in a sequential manner in order to determine whether nitration efficiency varied with concentration and to determine whether nitration catalysis was maintained with multiple additions (see FIG. 6 inset). Nitration efficiency was defined as the amount of nitropeptide formed per amount of peroxynitrite added and was calculated for each peroxynitrite addition; the values shown are the average of all nine peroxynitrite additions. The absorbance changes associated with nitrotyrosine peptide production were monitored simultaneously at 380, 430, and 460 nm. The extinction coefficients for nitrated GYA at pH 7.4 are 4,400 M^−1cm^−1 at 430 nm and 2,200 M^−1cm^−1 at both 380 and 460 nm. […] Wavelengths used to quantify nitrotyrosine production were chosen to minimize interference by the particular metalloporphyrin used. Experiments using HPA as a nitration target (FIG. 7) contained 8 mM HPA in either 0.1 M potassium phosphate, pH 7.4 or 0.1 M sodium borate, pH 9.1.

[6] = reference (8); cited from earlier work

Row | Structure (SMILES) | protection of isolated hearts [1] | Rate Constants for MP-Catalyzed Decomposition of Peroxynitrite (pH 7.4, 37° C.) ([2]; absence of added reductants) | Rate of Ascorbate Oxidation [3] | Rate Constants for Oxidation of MPs by Peroxynitrite [4] | enhancement of nitration yield at pH 9.1 ([5]; 8 mM HPA, 10 μM MP, 0.1 M sodium borate pH 9.1, versus non-catalyzed) | effect of ascorbate and GSH on nitration enhancement ([5]; concentrations which eliminated non-catalyzed nitration) | ascorbate concentration giving complete inhibition of nitration enhancement ([5]; dose-dependent, not shown) | effect of serum on nitration enhancement ([5]; fresh human serum 1:10 added prior to peroxynitrite) | Rate Constants for MP-Catalyzed Decomposition of Peroxynitrite (pH 7.4, 37° C.) ([2]; plus ascorbate 150 μM) | Rate constant for oxidation by peroxynitrite reported previously [6]
1 | O=C(O)c1ccc(-c2c3nc(c(-c4ccc(C(=O)O)cc4)c4ccc([n-]4)c(-c4ccc(C(=O)O)cc4)c4nc(c(-c5ccc(C(=O)O)cc5)c5ccc2[n-]5)C=C4)C=C3)cc1.[Fe+2] [FeTCPP, Iron (III) meso 5,10,15,20-tetrakis-(4-carboxy-phenyl) porphyrin] | protects isolated hearts from the injurious effects of ischemia and reperfusion | 1.6×10^6 M^−1s^−1 and 2.9 × 10^6 M^−1s^−1 ± 0.4 M^−1s^−1 | 5.8 µM/min | – | – | – | – | – | – | –
2 | C[n+]1ccc(-c2c3nc(c(-c4cc[n+](C)cc4)c4ccc([n-]4)c(-c4cc[n+](C)cc4)c4nc(c(-c5cc[n+](C)cc5)c5ccc2[n-]5)C=C4)C=C3)cc1.[Cl-].[Cl-].[Cl-].[Cl-].[Cl-].[Mn+3] [MnTMPyP, Manganese (III) meso-tetra-(N-methyl-4-pyridyl)-porphine chloride] | – | – | 6.77 ± 0.33 µM/min | 3.6e+06 M⁻¹ s⁻¹ | 12.3 fold | much less inhibitory effect | 1.5 mM | much less effect | 1.8 × 10^6 ± 0.3 M^−1s^−1 | 1.8e+06 M⁻¹ s⁻¹
